According to patent US20230217875A1, “IN VITRO EMBRYO RESCUE” (priority 2020, published 2023):

Columns and labels:
[1] = system: Triploid Arabidopsis thaliana (Col-0) embryos; experiment: in vitro embryo rescue of interploidy hybridization (Col 2x x Col 4x), embryo survival; type: cell-based; settings: for embryo appearance and growth: MS medium supplemented with the sugar, majority of triploid embryos (FIGS. 1C-1H)
Description: (§1) Seeds of Arabidopsis and Capsella were surface sterilized (5% sodium hypochlorite, 0.05% Triton X-100) for 10 min, washed three times in sterile ddH2O and then plated on half Murashige and Skoog (MS) medium, i.e., MS medium as defined below but half the concentration of the included ingredients. After stratification for 3 day at 4° C., plants were grown in a growth room under long-day photoperiod (16 hours light and 8 hours darkness) at 22° C. Eight-day-old seedlings were transferred to soil and plants were grown in a growth room at 60% humidity and daily cycles of 16 hours light at 22° C. and 8 hours darkness at 18° C. For crosses, designated female flower buds were emasculated, and the pistils hand-pollinated at 2 days after emasculation.
(§2) • 70% Ethanol; • Sterilizing solution (5% sodium hypochlorite+0.01% (v/v) of Triton X-100 or TWEEN® 20); • Autoclaved water; • Murashige & Skoog (MS) medium (Murashige and Skoog 1962): MS basal salt mixture 4.4 g/L, 0.7% plant agar, pH 5.8 and vitamins (glycine 2 mg/I, myo-inositol 100 mg/I, nicotinic acid 0.5 mg/I, pyridoxine HCl 0.5 mg/I and thiamine HCl 0.1 mg/I); • Nitsch medium (Nitsch & Nitsch 1969): basal salt mixture 2.1 g/L, 0.7% plant agar, pH 5.8 and vitamins (biotin 0.05 mg/I, folic acid 0.5 mg/I, glycine 2 mg/I, myo-inositol 100 mg/I, nicotinic acid 5 mg/I, pyridoxine HCl 0.5 mg/I and thiamine HCl 0.5 mg/I);
(§3) Triploid Arabidopsis seeds were derived from crossing diploid Arabidopsis females with tetraploid Arabidopsis pollen donors. Interspecific hybrid Capsella seeds were derived from crossing Capsella rubella females with Capsella grandiflora pollen donors. Hybrid embryos were isolated at the torpedo stage, at around 8 to 9 days after pollination (DAP) for Arabidopsis and 9 to 10 DAP for Capsella.
Under a sterile hood, the siliques of the crosses were incubated for 30 s in 70% ethanol, 30 s in sterilizing solution and 30 s in sterile water. […] Under a dissection microscope, the silique was opened with fine needles, and all seeds were transferred on the wet filter paper. The embryos were gently dissected and placed on the filter paper. During the dissection, the embryos and seeds should not become desiccated. The plates were sealed with Millipore tape and incubated under long-day photoperiod (16 hours light and 8 hours darkness) at 22° C.
After 5-7 days culture on MS medium with trehalose for Arabidopsis or 7-10 days for Capsella, viable embryos could be recognized by their green color and increased size that corresponded to the size of embryos at the bent cotyledon stage (FIG. 1J). Viable embryos were then transferred to Nitsch medium containing lower concentrations of trehalose, 1.5% (w/v) for Arabidopsis, 3% (w/v) for Capsella. Embryos were transferred from MS medium to Nitsch medium after two weeks. Transfer to Nitsch medium reduced vitrification, which is a frequently occurring phenomenon in tissue-cultured plants causing excessive hydration of tissues and reducing survival rate. Continued growth on MS medium for 3 weeks caused vitrification in Arabidopsis and Capsella seedlings (FIGS. 1L, 2I), but this phenomenon was suppressed by transfer to Nitsch medium (FIGS. 1M, 2J). After about two weeks of incubation, the initiation of roots could be observed (FIG. 1K) and the plantlets could be transferred to soil and continued to grow under long-day photoperiod (16 h light/8 h dark) at 22° C. in a growth room. […]

[2] = system: Hybrid embryos of Capsella (Capsella rubella×Capsella grandiflora); experiment: in vitro embryo rescue of interspecies hybrids, embryo survival; type: cell-based; settings: for effect on embryo survival: MS medium supplemented with the sugar (FIG. 2A); for embryo appearance and growth: MS medium supplemented with the sugar, majority of embryos (FIGS. 2C-2H)
Description: as §1, §2, §3
Under a sterile hood, the siliques of the crosses were incubated for 30 s in 70% ethanol, 30 s in sterilizing solution and 30 s in sterile water. The siliques were placed on MS medium supplemented with 3% (w/v) trehalose overlaid with a filter paper and several drops of sterile liquid MS medium were added on the silique. Under a dissection microscope, the silique was opened with fine needles, and all seeds were transferred on the wet filter paper. The embryos were gently dissected and placed on the filter paper. During the dissection, the embryos and seeds should not become desiccated. The plates were sealed with Millipore tape and incubated under long-day photoperiod (16 hours light and 8 hours darkness) at 22° C.
After 5-7 days culture on MS medium with trehalose for Arabidopsis or 7-10 days for Capsella, viable embryos could be recognized by their green color and increased size that corresponded to the size of embryos at the bent cotyledon stage (FIG. 1J). Viable embryos were then transferred to Nitsch medium containing lower concentrations of trehalose, 1.5% (w/v) for Arabidopsis, 3% (w/v) for Capsella. Embryos were transferred from MS medium to Nitsch medium after two weeks. Transfer to Nitsch medium reduced vitrification, which is a frequently occurring phenomenon in tissue-cultured plants causing excessive hydration of tissues and reducing survival rate. Continued growth on MS medium for 3 weeks caused vitrification in Arabidopsis and Capsella seedlings (FIGS. 1L, 2I), but this phenomenon was suppressed by transfer to Nitsch medium (FIGS. 1M, 2J). After about two weeks of incubation, the initiation of roots could be observed (FIG. 1K) and the plantlets could be transferred to soil and continued to grow under long-day photoperiod (16 h light/8 h dark) at 22° C. in a growth room.
To rescue interspecific hybrids of Capsella, the protocol was the same as above for A. thaliana but with minor changes for the trehalose concentration. Hybrid embryos of Capsella (Capsella rubella×Capsella grandiflora) were dissected at the torpedo stage under a stereomicroscope under sterile conditions on a laminar flow bench. […]

rice triploid embryos = experiment: rescue of triploid rice embryos, embryo survival; type: cell-based, Oryza sativa L. cv. Suitou nourin 8
Description: To obtain triploids of cultivated rice (Oryza sativa L. cv. Suitou nourin 8), diploid plants (JP9838) were emasculated and pollinated with pollen from tetraploid plants (JP7525). Triploid hybrid embryos were dissected under sterile conditions at 10-12 days after pollination (DAP) under a stereomicroscope. The isolated embryos were cultured in vitro on MS medium supplemented with 1.5% (w/v, 43.8 mM) trehalose together with sucrose (1.5%) and compared to MS medium supplemented with only sucrose (3%). […] The viable triploid embryos were transferred to MS medium containing lower concentrations of trehalose (0.75% w/v) together with 2.25% (w/v) sucrose for two weeks, until the initiation of roots could be observed (FIG. 3F). The plantlets were transferred to soil and their ploidy levels were validated by flow cytometry.
Cultivated rice (Oryza sativa L. cv. Suitou nourin 8, diploid, JP9838, and cv. Suitou nourin 8, tetraploid, JP7525) seeds were obtained from the National Institute of Agrobiological Sciences in Japan (http://www.gene.affrc.go.jp). Rice seeds were grown on soil and cultivated in a phytotron. Cultivating conditions were 14 h light and 10 h dark at 30° C./21° C. with a constant humidity of 80% and light intensity of 400 μmol per m^−2 s^−1. For crossing, designated diploid plants were emasculated and pollination was performed immediately after emasculation.
Under a sterile hood, immature triploid rice seeds at 10-12 DAP were dehusked using a pair of tweezers and sterilized for 2 min in 70% ethanol, followed by 15 min in 5% sodium hypochlorite with gentle mixing, 2 min in sterile water. The seeds were placed on MS medium supplemented with 1.5% (w/v) trehalose together with 1.5% (w/v) sucrose overlaid with a filter paper. Under a dissection microscope, the seed coat was removed with fine needles, and dissected embryos were transferred on the wet filter paper. During the dissection, the embryos should not become desiccated. The plates were sealed with Millipore tape and incubated under long-day photoperiod (16 hours light and 8 hours darkness) at 22° C. After 5-7 days of culture on MS medium with trehalose, viable embryos could be recognized by their light green color and increased size (FIG. 3E), compared to aborted embryos with dark brown color (FIG. 3D). Viable embryos were then transferred to MS medium containing lower concentrations of trehalose, 0.75% (w/v) together with 2.25% (w/v) sucrose. After about two weeks of incubation, the initiation of roots could be observed (FIG. 3F) and the plantlets could be transferred to soil and grows in a phytotron.

[3] = MS medium with only sucrose (3%)

Compound: O=C(CO)[C@@H](O)[C@H](O)[C@H](O)CO [fructose]
- embryo appearance and growth [1]: turned from light green to white and growth was arrested
- effect on embryo survival [2]: did not improve embryo survival
- embryo appearance and growth [2]: turned from light green to white and growth was arrested

Compound: O=C[C@H](O)[C@@H](O)[C@@H](O)[C@H](O)CO [galactose]
- embryo appearance and growth [1]: turned from light green to white and growth was arrested
- effect on embryo survival [2]: did not improve embryo survival
- embryo appearance and growth [2]: turned from light green to white and growth was arrested

Compound: OC[C@H]1O[C@@](CO)(O[C@H]2O[C@H](CO)[C@@H](O)[C@H](O)[C@H]2O)[C@@H](O)[C@@H]1O [sucrose]
- embryo appearance and growth [1]: turned from light green to white and growth was arrested
- effect on embryo survival [2]: did not improve embryo survival
- embryo appearance and growth [2]: turned from light green to white and growth was arrested
- embryo appearance and growth (rice triploid embryos; [3]): arrested growth and turned dark brown
- embryos survived (rice triploid embryos; [3]): none

Compound: OC[C@H]1O[C@H](O[C@H]2O[C@H](CO)[C@@H](O)[C@H](O)[C@H]2O)[C@H](O)[C@@H](O)[C@@H]1O [trehalose]
- embryo survival rate ([1]; MS medium supplemented with 3% (w/v) sugar, embryos at torpedo stage, 14 days of in vitro culture (FIG. 1A)): over 70%
- highest survival rate ([1]; plates containing 2% (w/v) trehalose, 14 days (FIG. 1B)): over 90%
- hybrid embryos rescued (survival rate) ([2]; MS medium supplemented with 3% (w/v) sugar, 14 days (FIG. 2A)): 80%
- highest survival rate ([2]; plates containing 6% trehalose, 14 days (FIG. 2B)): over 90%
- embryos survived (rice triploid embryos; MS medium with 1.5% (w/v) trehalose together with sucrose (1.5%), after one week of culture): Around 30%
- embryo appearance (rice triploid embryos; MS medium with 1.5% trehalose together with 1.5% sucrose, after one week): turning light green
